Data set [1] can be described thus: Slurry conversion of mixed anhydrous Form I and Form II in MTBE:water (95:5). It is filed as physicochemical. To be noted: equal amounts Form I and Form II, room temperature, three days. The procedure:
Equal amounts (˜50 mg) of anhydrous Form I and anhydrous Form II were weighed out and physically mixed in a vial with a spatula. A solution of MTBE:water (95:5) was added to this solid mixture and stirred to form a suspension. The suspension was stirred at room temperature for three days and filtered through a filter paper. The solid residue was allowed to dry under ambient conditions and analyzed with powder X-ray diffractometry and DSC.

Data set [2] in a line: Dynamic moisture sorption (DMS) assessment. To be noted: for crystalline form after the DMS experiment (by PXRD, DSC, TGA): 5% RH to 90% RH adsorption/desorption, 25° C.; for moisture picked up during the adsorption segment (DMS): 5% RH to 90% RH, isothermal 25° C., desorption matches adsorption, no hysteresis. It is filed as physicochemical. As for the experimental part:
Dynamic moisture sorption (DMS) measurements were performed for each crystalline form using a VTI atmospheric microbalance, SGA-100 system (VTI Corp., Hialeah, Fla. 33016). A weighed sample was used and the humidity was set at the ambient value at the start of the analysis. The DMS analysis consisted of a scan rate of 5% RH/step over the full humidity range of 5% relative humidity (RH) to 90% RH. The DMS run was performed isothermally at 25° C.

Three molecules from patent US8969403B2, “Crystalline forms of a 3-[2-methanesulfonyl-1-(4-trifluoromethyl-phenoxy)ethyl]pyrrolidine compound” (Theravance Biopharma R&D IP, LLC, priority 2011, dated 2015) can be followed below.

For the molecule `CS(=O)(=O)C[C@@H](Oc1ccc(C(F)(F)F)cc1)[C@H]1CCNC1` [anhydrous Form I, (S)-3-[(S)-2-methanesulfonyl-1-(4-trifluoromethylphenoxy)ethyl]pyrrolidine], in data set [1], the “anhydrous Form II content of the filtered solid (PXRD)” value was > 95% and the “form conversion under slurry conditions” value was “converted to anhydrous Form II”. Further, in data set [2], the “crystalline form after the DMS experiment (by PXRD, DSC, TGA)” value (from here on “crystalline form”) is given as “converted to the monohydrate form”. The “moisture uptake between 60% RH and 65% RH (DMS adsorption segment)” value in data set [2] (gradual uptake until 60% RH, isotherm flat 65% RH to 90% RH, moisture not lost on desorption) is recorded as “rapid”.

As to `CS(=O)(=O)C[C@@H](Oc1ccc(C(F)(F)F)cc1)[C@H]1CCNC1` [anhydrous Form II, (S)-3-[(S)-2-methanesulfonyl-1-(4-trifluoromethylphenoxy)ethyl]pyrrolidine], in data set [2], the “crystalline form” value is “remains as Form II” and the “moisture picked up during the adsorption segment (DMS)” value is listed as “less than 1 % by weight”.

In the case of `CS(=O)(=O)C[C@@H](Oc1ccc(C(F)(F)F)cc1)[C@H]1CCNC1` [monohydrate, (S)-3-[(S)-2-methanesulfonyl-1-(4-trifluoromethylphenoxy)ethyl]pyrrolidine], in data set [2], the “crystalline form” value was “remains as the monohydrate form” and the “moisture picked up during the adsorption segment (DMS)” value is listed as “less than 1 % by weight”.
